The results in this text go back to patent publication US7846959B2, “Raf modulators and methods of use” (Exelixis, Inc., priority 2004, dated 2010).

Broadly, the IC50 is the concentration that inhibits the measured activity by half.

One experiment has as its target c-Raf (Homo sapiens, UniProt P04049). Description: Luciferase-coupled chemiluminescence kinase assay (ATP consumption), c-Raf. It counts as biochemical. Particulars: read-out: cRaf-1 (inhibition indicated as IC50). Summed up:
(§1)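 Enzyme ([…]) was pre-incubated with compound for 30 min at room temperature in 20 mM Tris pH 7.5, 10 mM MgCl2, 0.03% TX-100, 1 mM DTT. ATP was added and the reaction ran 3 h at ambient temperature. Remaining ATP was read by luciferase-luciferin chemiluminescence, giving IC50 values.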

In the next experiment the target is B-Raf (Homo sapiens, UniProt P15056). Description: Luciferase-coupled chemiluminescence kinase assay (ATP consumption), B-Raf. It counts as biochemical. To be noted: read-out: bRaf (inhibition indicated as IC50). Put shortly:
as §1

Sequence of c-Raf (P04049 whole entry): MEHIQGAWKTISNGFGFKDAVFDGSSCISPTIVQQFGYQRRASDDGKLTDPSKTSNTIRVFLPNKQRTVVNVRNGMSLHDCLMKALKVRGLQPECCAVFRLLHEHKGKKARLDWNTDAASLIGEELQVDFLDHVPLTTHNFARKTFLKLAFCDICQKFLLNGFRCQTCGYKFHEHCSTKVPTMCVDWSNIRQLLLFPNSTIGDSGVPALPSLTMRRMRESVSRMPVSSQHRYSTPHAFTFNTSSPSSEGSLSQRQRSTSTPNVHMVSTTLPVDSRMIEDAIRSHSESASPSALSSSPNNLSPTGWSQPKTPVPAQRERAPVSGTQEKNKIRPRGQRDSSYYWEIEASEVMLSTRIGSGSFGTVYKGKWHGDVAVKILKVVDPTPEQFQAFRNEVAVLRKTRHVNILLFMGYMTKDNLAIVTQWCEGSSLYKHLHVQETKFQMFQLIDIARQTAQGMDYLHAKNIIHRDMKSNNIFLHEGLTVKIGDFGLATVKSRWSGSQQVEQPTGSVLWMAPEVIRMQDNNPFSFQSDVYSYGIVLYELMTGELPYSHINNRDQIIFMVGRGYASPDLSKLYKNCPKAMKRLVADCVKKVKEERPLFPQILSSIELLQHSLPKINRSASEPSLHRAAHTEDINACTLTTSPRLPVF
Sequence of B-Raf (P15056 whole entry): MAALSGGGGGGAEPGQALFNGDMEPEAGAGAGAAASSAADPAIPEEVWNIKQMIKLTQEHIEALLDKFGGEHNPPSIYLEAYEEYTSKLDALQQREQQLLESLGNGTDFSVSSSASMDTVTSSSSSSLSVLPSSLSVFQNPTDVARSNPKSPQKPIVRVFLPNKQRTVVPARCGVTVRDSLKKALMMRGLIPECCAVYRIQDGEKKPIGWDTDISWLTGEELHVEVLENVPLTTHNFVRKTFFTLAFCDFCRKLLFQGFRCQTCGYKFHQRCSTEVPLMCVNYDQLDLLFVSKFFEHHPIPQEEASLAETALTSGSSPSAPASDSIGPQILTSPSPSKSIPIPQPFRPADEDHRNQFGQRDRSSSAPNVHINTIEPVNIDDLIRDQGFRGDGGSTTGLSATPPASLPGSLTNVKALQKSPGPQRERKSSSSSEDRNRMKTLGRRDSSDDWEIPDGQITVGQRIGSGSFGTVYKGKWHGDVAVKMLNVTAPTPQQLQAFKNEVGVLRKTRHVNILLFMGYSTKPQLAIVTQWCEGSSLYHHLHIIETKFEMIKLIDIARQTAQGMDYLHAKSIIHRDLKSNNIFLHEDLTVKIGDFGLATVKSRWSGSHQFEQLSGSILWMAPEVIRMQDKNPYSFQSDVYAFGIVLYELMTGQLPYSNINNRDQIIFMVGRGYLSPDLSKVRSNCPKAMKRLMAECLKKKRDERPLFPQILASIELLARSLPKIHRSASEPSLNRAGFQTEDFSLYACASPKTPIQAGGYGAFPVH

As for `COC(=O)Nc1nc2cc(C3(O)c4ccccc4C(=O)N3c3cc(Cl)ccc3C)ccc2[nH]1` (stereo not shown) [Entry 285, methyl {5-[2-(5-chloro-2-methylphenyl)-1-hydroxy-3-oxo-2,3-dihydro-1H-isoindol-1-yl]-1H-benzimidazol-2-yl}carbamate], the IC50 at c-Raf and at B-Raf was less than 100 nM each time.

With `CC(C)(CN1CCCCC1)C(=O)Nc1nc2ccc(C3(O)c4ccccc4C(=O)N3Cc3ccccc3)cc2[nH]1` (stereo not shown) [Entry 286, N-{6-[1-hydroxy-3-oxo-2-(phenylmethyl)-2,3-dihydro-1H-isoindol-1-yl]-1H-benzimidazol-2-yl}-2,2-dimethyl-3-piperidin-1-ylpropanamide], the IC50 at c-Raf and at B-Raf was 1000 to 10000 nM in each case.

For the compound `O=C(CCCN1CCCCC1)Nc1nc2cc(C3(O)c4ccccc4C(=O)N3c3ccc(F)cc3)ccc2[nH]1` (stereo not shown) [Entry 287, N-{5-[2-(4-fluorophenyl)-1-hydroxy-3-oxo-2,3-dihydro-1H-isoindol-1-yl]-1H-benzimidazol-2-yl}-4-piperidin-1-ylbutanamide], the half-inhibitory concentration (IC50) at c-Raf and at B-Raf was less than 100 nM in each case.

Turning to `O=C(CCCN1CCCCC1)Nc1nc2cc(C3(O)c4ccccc4C(=O)N3c3cccc(Cl)c3F)ccc2[nH]1` (stereo not shown) [Entry 288, N-{5-[2-(3-chloro-2-fluorophenyl)-1-hydroxy-3-oxo-2,3-dihydro-1H-isoindol-1-yl]-1H-benzimidazol-2-yl}-4-piperidin-1-ylbutanamide], the IC50 at c-Raf and at B-Raf was less than 100 nM each time.

Turning to `COC(=O)Nc1nc2ccc(C(=O)c3ccccc3NC(=O)c3ccccc3)cc2[nH]1` [Entry 289, methyl [6-({2-[(phenylcarbonyl)amino]phenyl}carbonyl)-1H-benzimidazol-2-yl]carbamate], the IC50 at c-Raf and on B-Raf was 1000 to 10000 nM each time.

`COC(=O)Nc1nc2cc(C3(O)c4ccccc4C(=O)N3c3cccc(N4CCOCC4)c3)ccc2[nH]1` (stereo not shown) [Entry 290, methyl {5-[1-hydroxy-2-(3-morpholin-4-ylphenyl)-3-oxo-2,3-dihydro-1H-isoindol-1-yl]-1H-benzimidazol-2-yl}carbamate]: the IC50 on c-Raf and on B-Raf was 1000 to 10000 nM throughout.

With `CN(C)CCOC(=O)Nc1nc2ccc(C3(O)c4ccccc4C(=O)N3c3cccc(Cl)c3F)cc2[nH]1` (stereo not shown) [Entry 291, 2-(dimethylamino)ethyl {6-[2-(3-chloro-2-fluorophenyl)-1-hydroxy-3-oxo-2,3-dihydro-1H-isoindol-1-yl]-1H-benzimidazol-2-yl}carbamate], the IC50 at c-Raf and at B-Raf was less than 100 nM throughout.

Consider `CCN(CC)CCOC(=O)Nc1nc2cc(C3(O)c4ccccc4C(=O)N3c3cccc(Cl)c3F)ccc2[nH]1` (stereo not shown) [Entry 292, 2-(diethylamino)ethyl {5-[2-(3-chloro-2-fluorophenyl)-1-hydroxy-3-oxo-2,3-dihydro-1H-isoindol-1-yl]-1H-benzimidazol-2-yl}carbamate], for which the IC50 at c-Raf and on B-Raf was less than 100 nM in each case.

`O=C(Nc1nc2cc(C3(O)c4ccccc4C(=O)N3c3cccc(Cl)c3F)ccc2[nH]1)OCCN1CCCCC1` (stereo not shown) [Entry 293, 2-piperidin-1-ylethyl {5-[2-(3-chloro-2-fluorophenyl)-1-hydroxy-3-oxo-2,3-dihydro-1H-isoindol-1-yl]-1H-benzimidazol-2-yl}carbamate]: the IC50 on c-Raf and on B-Raf was less than 100 nM in each case.

Regarding `O=C(Nc1nc2ccc(C3(O)c4ccccc4C(=O)N3c3cccc(Cl)c3F)cc2[nH]1)OCCCN1CCCCC1` (stereo not shown) [Entry 294, 3-piperidin-1-ylpropyl {6-[2-(3-chloro-2-fluorophenyl)-1-hydroxy-3-oxo-2,3-dihydro-1H-isoindol-1-yl]-1H-benzimidazol-2-yl}carbamate], the IC50 on c-Raf and on B-Raf was 1000 to 10000 nM in each case.

As to `O=C(Nc1nc2ccc(C3c4ccccc4C(=O)N3c3cccc(Br)c3)cc2[nH]1)OCCN1CCCCC1` (stereo not shown) [Entry 295, 2-piperidin-1-ylethyl {6-[2-(3-bromophenyl)-3-oxo-2,3-dihydro-1H-isoindol-1-yl]-1H-benzimidazol-2-yl}carbamate], the IC50 at c-Raf was less than 100 nM; at B-Raf it was 100 to 1000 nM.

`COC(=O)Nc1nc2ccc(C3(O)c4c(F)ccc(F)c4C(=O)N3c3cccc(Br)c3)cc2[nH]1` (stereo not shown) [Entry 296, methyl {6-[2-(3-bromophenyl)-4,7-difluoro-1-hydroxy-3-oxo-2,3-dihydro-1H-isoindol-1-yl]-1H-benzimidazol-2-yl}carbamate]: the IC50 at c-Raf and on B-Raf was less than 100 nM throughout.

In the case of `CN(CCOC(=O)Nc1nc2cc(C3(O)c4ccccc4C(=O)N3c3cccc(Cl)c3F)ccc2[nH]1)Cc1ccccc1` (stereo not shown) [Entry 297, 2-[methyl(phenylmethyl)amino]ethyl {5-[2-(3-chloro-2-fluorophenyl)-1-hydroxy-3-oxo-2,3-dihydro-1H-isoindol-1-yl]-1H-benzimidazol-2-yl}carbamate], the IC50 on c-Raf and at B-Raf was less than 100 nM throughout.

As for `COC(=O)Nc1nc2cc(C3(O)c4ccccc4C(=O)N3c3cccc(N4CCCC4)c3)ccc2[nH]1` (stereo not shown) [Entry 298, methyl {5-[1-hydroxy-3-oxo-2-(3-pyrrolidin-1-ylphenyl)-2,3-dihydro-1H-isoindol-1-yl]-1H-benzimidazol-2-yl}carbamate], the IC50 at c-Raf and at B-Raf was 1000 to 10000 nM in each case.

Turning to `COC(=O)Nc1nc2cc(C3(O)c4ccccc4C(=O)N3c3cc(Cl)cc(F)c3F)ccc2[nH]1` (stereo not shown) [Entry 299, methyl {5-[2-(5-chloro-2,3-difluorophenyl)-1-hydroxy-3-oxo-2,3-dihydro-1H-isoindol-1-yl]-1H-benzimidazol-2-yl}carbamate], the half-maximal inhibitory concentration (IC50) on c-Raf and at B-Raf was less than 100 nM in each case.

As for `COC(=O)Nc1nc2cc(C3(O)c4ccccc4C(=O)N3CC3CCCN3)ccc2[nH]1` (stereo not shown) [Entry 300, methyl {5-[1-hydroxy-3-oxo-2-(pyrrolidin-2-ylmethyl)-2,3-dihydro-1H-isoindol-1-yl]-1H-benzimidazol-2-yl}carbamate], the IC50 at c-Raf and on B-Raf was 1000 to 10000 nM each time.

In the case of `COC(=O)Nc1nc2cc(C3(O)c4ccccc4C(=O)N3CC3CCNC3)ccc2[nH]1` (stereo not shown) [Entry 301, methyl {5-[1-hydroxy-3-oxo-2-(pyrrolidin-3-ylmethyl)-2,3-dihydro-1H-isoindol-1-yl]-1H-benzimidazol-2-yl}carbamate], the IC50 at c-Raf and on B-Raf was 1000 to 10000 nM each time.

On to `CN1CCCCC1COC(=O)Nc1nc2ccc(C3(O)c4ccccc4C(=O)N3c3cccc(Cl)c3F)cc2[nH]1` (stereo not shown) [Entry 302, (1-methylpiperidin-2-yl)methyl {6-[2-(3-chloro-2-fluorophenyl)-1-hydroxy-3-oxo-2,3-dihydro-1H-isoindol-1-yl]-1H-benzimidazol-2-yl}carbamate], for which the IC50 on c-Raf and at B-Raf was less than 100 nM in each case.

For the compound `CN1CCC[C@H]1COC(=O)Nc1nc2ccc(C3(O)c4ccccc4C(=O)N3c3cccc(Cl)c3F)cc2[nH]1` (stereo partly drawn) [Entry 303, [(2S)-1-methylpyrrolidin-2-yl]methyl {6-[2-(3-chloro-2-fluorophenyl)-1-hydroxy-3-oxo-2,3-dihydro-1H-isoindol-1-yl]-1H-benzimidazol-2-yl}carbamate], the IC50 on c-Raf and on B-Raf was less than 100 nM each time.

For `O=C(Nc1nc2ccc(C3(O)c4ccccc4C(=O)N3c3cccc(Cl)c3F)cc2[nH]1)OCC1CCCN2CCCCC12` (stereo not shown) [Entry 304, octahydro-2H-quinolizin-1-ylmethyl {6-[2-(3-chloro-2-fluorophenyl)-1-hydroxy-3-oxo-2,3-dihydro-1H-isoindol-1-yl]-1H-benzimidazol-2-yl}carbamate], the IC50 at c-Raf and on B-Raf was less than 100 nM each time.

Turning to `COC(=O)Nc1nc2cc(C3(O)c4ccccc4C(=O)N3c3cc(Br)ccc3C)ccc2[nH]1` (stereo not shown) [Entry 305, methyl {5-[2-(5-bromo-2-methylphenyl)-1-hydroxy-3-oxo-2,3-dihydro-1H-isoindol-1-yl]-1H-benzimidazol-2-yl}carbamate], the IC50 at c-Raf and at B-Raf was less than 100 nM in each case.

Turning to `O=C1c2ccccc2C(O)(c2ccc3[nH]c(=O)[nH]c3c2)N1c1cccc(Cl)c1F` (stereo not shown) [Entry 306, 5-[2-(3-chloro-2-fluorophenyl)-1-hydroxy-3-oxo-2,3-dihydro-1H-isoindol-1-yl]-1,3-dihydro-2H-benzimidazol-2-one], the IC50 at c-Raf and at B-Raf was 1000 to 10000 nM in each case.

For the compound `COC(=O)Nc1nc2cc(C3(O)c4ccccc4C(=O)N3c3cc(F)cc(Br)c3F)ccc2[nH]1` (stereo not shown) [Entry 307, methyl {5-[2-(3-bromo-2,5-difluorophenyl)-1-hydroxy-3-oxo-2,3-dihydro-1H-isoindol-1-yl]-1H-benzimidazol-2-yl}carbamate], the IC50 on c-Raf and on B-Raf was less than 100 nM in each case.

On to `O=C(Nc1nc2ccc(C3(O)c4ccccc4C(=O)N3c3cccc(Cl)c3F)cc2[nH]1)OCCN1CCOCC1` (stereo not shown) [Entry 308, 2-morpholin-4-ylethyl {6-[2-(3-chloro-2-fluorophenyl)-1-hydroxy-3-oxo-2,3-dihydro-1H-isoindol-1-yl]-1H-benzimidazol-2-yl}carbamate], for which the half-maximal inhibitory concentration (IC50) on c-Raf and at B-Raf was less than 100 nM each time.

For `CN1CCCC(COC(=O)Nc2nc3ccc(C4(O)c5ccccc5C(=O)N4c4cccc(Cl)c4F)cc3[nH]2)C1` (stereo not shown) [Entry 309, (1-methylpiperidin-3-yl)methyl {6-{2-(3-chloro-2-fluorophenyl)-1-hydroxy-3-oxo-2,3-dihydro-1H-isoindol-1-yl]-1H-benzimidazol-2-yl}carbamate], the IC50 at c-Raf and at B-Raf was less than 100 nM in each case.

Take `COC(=O)Nc1nc2cc(C3(O)c4ccccc4C(=O)N3c3cc(Cl)ccc3OC)ccc2[nH]1` (stereo not shown) [Entry 310, methyl (5-{2-[5-chloro-2-(methyloxy)phenyl]-1-hydroxy-3-oxo-2,3-dihydro-1H-isoindol-1-yl}-1H-benzimidazol-2-yl)carbamate]: the half-inhibitory concentration (IC50) on c-Raf and at B-Raf was less than 100 nM each time.
